#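 Exposure lasted 48 hours, with cells grown in 96-well plates and compounds tested at five concentrations. The concentration for 50% growth inhibition is given as GI50.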 Active and inactive are the calls of the source. No stated cut-off is given here; in the data, active = GI50 up to about 1.1 µM and inactive = higher.
# Legend:
# Test in all cases: NCI anticancer screen, dose series, 48 h
# LOX IMVI = test system: LOX IMVI
# NCI-H23 = test system: NCI-H23
# MDA-N = test system: MDA-N
# SR = test system: SR
# UACC-257 = test system: UACC-257
# UO-31 = test system: UO-31
# ACHN = test system: ACHN
# OVCAR-8 = test system: OVCAR-8
# A498 = test system: A498
# COLO 205 = test system: COLO 205
# UACC-62 = test system: UACC-62
# SK-MEL-28 = test system: SK-MEL-28
# MDA-MB-231 = test system: MDA-MB-231
# Hs-578T = test system: Hs-578T
# CAKI-1 = test system: CAKI-1
# HL-60 = test system: HL-60
# HCC 2998 = test system: HCC 2998
# SW-620 = test system: SW-620
# OVCAR-4 = test system: OVCAR-4
# RPMI-8226 = test system: RPMI-8226
SMILES,GI50 (LOX IMVI),GI50 (NCI-H23),GI50 (MDA-N),GI50 (SR),GI50 (UACC-257),GI50 (UO-31),GI50 (ACHN),GI50 (OVCAR-8),GI50 (A498),GI50 (COLO 205),GI50 (UACC-62),GI50 (SK-MEL-28),GI50 (MDA-MB-231),GI50 (Hs-578T),GI50 (CAKI-1),GI50 (HL-60),GI50 (HCC 2998),GI50 (SW-620),GI50 (OVCAR-4),GI50 (RPMI-8226)
O=C1c2ccccc2C(=O)c2c(NCC3CO3)ccc(NCC3CO3)c21 (stereo not given),0.0132 µM (active),1.49 µM (inactive),1.3 µM (inactive),0.0228 µM (active),7.08 µM (inactive),1.87 µM (inactive),0.303 µM (active),0.63 µM (active),33.3 µM (inactive),4.99 µM (inactive),1.08 µM (active),2.71 µM (inactive),3.3 µM (inactive),3.72 µM (inactive),0.687 µM (active),< 0.01 µM (active),9.1 µM (inactive),1.22 µM (inactive),10.9 µM (inactive),2.76 µM (inactive)
CCCCC(=O)Nc1ccc2cc(C(=O)OC)c(Cl)nc2n1,> 100 µM (inactive),> 100 µM (inactive),> 100 µM (inactive),> 100 µM (inactive),43.7 µM (inactive),19.9 µM (inactive),> 100 µM (inactive),> 100 µM (inactive),37.1 µM (inactive),12.8 µM (inactive),> 100 µM (inactive),> 76.4 µM (inactive),> 100 µM (inactive),4.7 µM (inactive),> 60.7 µM (inactive),2.58 µM (inactive),10.9 µM (inactive),> 100 µM (inactive),> 100 µM (inactive),9.75 µM (inactive)
COc1cc2[nH]c(=O)c3cc(-c4ccccc4)cc4c(Cl)nc(c1OC)c2c43,6.78 µM (inactive),15.3 µM (inactive),3.86 µM (inactive),9.89 µM (inactive),4.69 µM (inactive),19.2 µM (inactive),15.6 µM (inactive),5.14 µM (inactive),> 100 µM (inactive),11.6 µM (inactive),14.1 µM (inactive),32.1 µM (inactive),3.64 µM (inactive),> 100 µM (inactive),24.4 µM (inactive),2.17 µM (inactive),23.6 µM (inactive),3.37 µM (inactive),9.27 µM (inactive),13.2 µM (inactive)
COC(=O)[C@]12CCC(C)(C)C[C@H]1C1=CC[C@@H]3[C@@]4(C)CC[C@H](OC5OC(CO)C(O)C(O)C5OC5OC(CO)C(O)C(O)C5O)C(C)(C)[C@@H]4CC[C@@]3(C)[C@]1(C)CC2 (stereo not given in full),6.15 µM (inactive),7.08 µM (inactive),5.43 µM (inactive),7.85 µM (inactive),7.85 µM (inactive),3.4 µM (inactive),7.55 µM (inactive),15.9 µM (inactive),11.3 µM (inactive),3.09 µM (inactive),10.5 µM (inactive),3.37 µM (inactive),2.65 µM (inactive),22.5 µM (inactive),8.81 µM (inactive),4.93 µM (inactive),14.8 µM (inactive),14.2 µM (inactive),4.43 µM (inactive),19.3 µM (inactive)
Cc1cc2nc(O)c(C(C)C(=O)c3ccc(Cl)cc3)nc2cc1C (stereo not given),35.6 µM (inactive),46.3 µM (inactive),17.8 µM (inactive),22.2 µM (inactive),16.6 µM (inactive),46.9 µM (inactive),54.1 µM (inactive),32.5 µM (inactive),23.1 µM (inactive),22 µM (inactive),46.9 µM (inactive),50.8 µM (inactive),36.7 µM (inactive),54.6 µM (inactive),81.7 µM (inactive),21.2 µM (inactive),13.5 µM (inactive),28.8 µM (inactive),31.6 µM (inactive),43.2 µM (inactive)
O=C(/C=C/C(=O)N1CCCC1)N1CCCC1,> 100 µM (inactive),> 100 µM (inactive),> 100 µM (inactive),> 100 µM (inactive),> 100 µM (inactive),> 100 µM (inactive),> 100 µM (inactive),> 100 µM (inactive),> 100 µM (inactive),> 100 µM (inactive),> 100 µM (inactive),> 100 µM (inactive),> 100 µM (inactive),> 100 µM (inactive),> 100 µM (inactive),> 100 µM (inactive),> 100 µM (inactive),> 100 µM (inactive),> 100 µM (inactive),> 100 µM (inactive)
O=C1/C(=C(/Br)I)c2ccccc2-c2ccccc21,5.3 µM (inactive),18.1 µM (inactive),2.95 µM (inactive),2.92 µM (inactive),6.01 µM (inactive),2.4 µM (inactive),7.26 µM (inactive),16.9 µM (inactive),16.4 µM (inactive),2.04 µM (inactive),7.19 µM (inactive),21.5 µM (inactive),6.14 µM (inactive),28.6 µM (inactive),5.57 µM (inactive),0.248 µM (active),3.76 µM (inactive),2.52 µM (inactive),14.7 µM (inactive),2.97 µM (inactive)
